In patent US20210246115A1 (Bioimics AB, priority 2017, published 2021):
Structures can show the parent of a compound that is named as a salt. Where two headings read alike, the source gives them in different places.

What was measured:
[1] = test system: E. coli RNase P RNA, M1 RNA; assay: Initial screening for inhibition of RNase P activity (normalised cleavage of pATSerUG at maximum compound concentration); assay type: biochemical; conditions: normalised cleavage (cleavage with compound / without compound) at maximum compound concentration
[2] = test system: E. coli RNase P RNA, M1 RNA; assay: Inhibition of bacterial RNase P activity, IC50 determination (cleavage of pATSerUG by M1 RNA); assay type: biochemical; conditions: NI: No inhibition
S. pneumoniae ATCC 49619 = assay: MIC, S. pneumoniae ATCC 49619; assay type: cell-based; conditions: Streptococcus pneumoniae, ATCC49619; Table XIV A. Gram-positive bacteria
[3] = test system: Enterococcus faecalis (ATCC29212); assay: MIC, broth microdilution (CLSI), Enterococcus faecalis; assay type: cell-based
[4] = test system: Pseudomonas aeruginosa (ATCC27853); assay: MIC, broth microdilution (CLSI), Pseudomonas aeruginosa; assay type: cell-based
[5] = test system: Staphylococcus aureus subsp. aureus (ATCC29213); assay: MIC, broth microdilution (CLSI), Staphylococcus aureus ATCC29213; assay type: cell-based; conditions: Staphylococcus aureus
[6] = test system: E. coli JW5503 (efflux defective); assay: MIC, E. coli JW5503 (efflux defective); assay type: cell-based; conditions: Escherichia coli, read-out: E. coli JW5503 (efflux defective) MIC
[7] = test system: N. gonorrhoeae ATCC 700825; assay: MIC, N. gonorrhoeae ATCC 700825; assay type: cell-based; conditions: Neisseria gonorrhoeae, ATCC700825; Table XIV B. Gram-negative bacteria
[8] = test system: S. aureus MRSA ATCC 33591; assay: MIC, S. aureus MRSA ATCC 33591; assay type: cell-based; conditions: Staphylococcus aureus, read-out: S. aureus MRSA ATCC 33591 MIC
[9] = test system: Staphylococcus aureus (ATCC25923); assay: MIC, broth microdilution (CLSI), Staphylococcus aureus ATCC25923; conditions: Staphylococcus aureus, ATCC25923, read-out: S. aureus ATCC 25923 MIC
E. faecium ATCC 700221 = assay: MIC, E. faecium ATCC 700221; assay type: cell-based; conditions: Enterococcus faecium
[10] = test system: P. aeruginosa NTUH974 (MDR); assay: MIC, P. aeruginosa NTUH974 (MDR); assay type: cell-based; conditions: Pseudomonas aeruginosa, read-out: P. aeruginosa NTUH974 (MDR) MIC
A. baumannii ATCC 17978 = assay: MIC, A. baumannii ATCC 17978; assay type: cell-based; conditions: Acinetobacter baumannii, ATCC17978; Table XIV B. Gram-negative bacteria
H. influenzae ATCC 49247 = assay: MIC, H. influenzae ATCC 49247; assay type: cell-based; conditions: Haemophilus influenzae, ATCC49247; Table XIV B. Gram-negative bacteria
K. pneumoniae ATCC 43816 = assay: MIC, K. pneumoniae ATCC 43816; assay type: cell-based; conditions: Klebsiella pneumoniae, ATCC43816; Table XIV B. Gram-negative bacteria
[11] = test system: Escherichia coli (ATCC25922); assay: MIC, broth microdilution (CLSI), Escherichia coli; conditions: Escherichia coli
Procedure: Initial minimal inhibitory concentration (MIC) tests were made on two bacterial strains: • Escherichia coli (ATCC25922) • Staphylococcus aureus (ATCC25923).
MIC values were determined using the standard broth microdilution procedure based on the guidelines by the Clinical and Laboratory Standards Institute (CLSI). Briefly, the compounds were dissolved in DMSO to 10 mM. They were diluted in cation-adjusted Mueller-Hinton broth (CAMHB) to four times the highest concentration tested. A serial two-fold dilution in CAMHB was done in microdilution plates. The inoculum of bacterial strain to be tested was prepared by making a suspension of colonies from an 18 to 24 hours old plate in CAMHB. The inoculum was diluted so that, after inoculation, each well contained approximately 5×10^5 CFU/mL. To a volume of 50 μl compound in CA 3 an equal volume of inoculum was added. The tray was sealed in a plastic bag and incubated at 35° C. for 16 to 20 hours. To aid in the detection of growth the dye resazurin was added to a final concentration 0.001% and incubated at room temperature for 1 h. Reduction of resazurin, and therefore bacterial growth, was seen as a change from blue to pink.

[12] = ATCC29212, read-out: E. faecalis ATCC 29212 MIC
[13] = ATCC27853, read-out: P. aeruginosa ATCC 27853 MIC
[14] = ATCC29213, read-out: S. aureus ATCC 29213 MIC, Table XIV A. Gram-positive bacteria
[15] = ATCC700221, read-out: E. faecium ATCC 700221 MIC
[16] = ATCC25922, read-out: E. coli ATCC 25922 MIC, Table XIII
[17] = ATCC25922, read-out: E. coli ATCC 25922 MIC, Table XIV B. Gram-negative bacteria
[18] = ATCC29212, Table XIV A. Gram-positive bacteria, read-out: E. faecalis ATCC 29212 MIC
[19] = ATCC27853, Table XIV B. Gram-negative bacteria, read-out: P. aeruginosa ATCC 27853 MIC
[20] = ATCC29213, Table XIII, read-out: S. aureus ATCC 29213 MIC
[21] = ATCC29213, Table XIV A. Gram-positive bacteria, read-out: S. aureus ATCC 29213 MIC
[22] = Table XIV A. Gram-positive bacteria
[23] = ATCC700221, Table XIV A. Gram-positive bacteria, read-out: E. faecium ATCC 700221 MIC
[24] = Table XIV B. Gram-negative bacteria

Row | Structure (SMILES) | Initial screening of RNase P Inhibition [1] | MIC (S. pneumoniae ATCC 49619) [µg/mL] | MIC [6] [µg/mL] | MIC [7] [µg/mL] | MIC [9] [µg/mL] | MIC (A. baumannii ATCC 17978) [µg/mL] | MIC (H. influenzae ATCC 49247) [µg/mL] | IC50 [2] [µM] | MIC (K. pneumoniae ATCC 43816) [µg/mL] | MIC [11, 16] [µg/mL] | MIC [11, 17] [µg/mL] | further results
1 | c1ccc2c(CCNCC3CCNCC3)c[nH]c2c1 [Compound 18, 2-(1H-indol-3-yl)-N-(piperidin-4-ylmethyl)ethan-1-amine hydrochloride salt] | 1.05 |  |  |  |  |  |  |  |  |  |  | 
2 | Cl.c1c[nH]c(CNCCc2c[nH]c3ccccc23)c1 [Compound 14, N-((1H-pyrrol-2-yl)methyl)-2-(1H-indol-3-yl)ethan-1-amine hydrochloride salt] | 0.78 |  |  |  |  |  |  |  |  |  |  | 
3 | Cc1cccc(C(CC(=O)NCCC2CCNCC2)c2cn(Cc3ccccc3)c3ccccc23)c1.Cl (stereo not shown) [Compound 86, 3-(1-benzyl-1H-indol-3-yl)-N-(2-(piperidin-4-yl)ethyl)-3-(m-tolyl)propanamide hydrochloride salt] |  |  |  |  |  |  |  |  |  |  |  | Initial screening of RNase P Inhibition ([1]; hydrochloride salt): 0.78; IC50 ([2]; hydrochloride salt): 242 µM
4 | Cc1ccc(CN(CCc2c[nH]c3ccccc23)C(=O)CNCc2ccc(F)cc2)cc1.Cl [Compound 15, N-(2-(1H-indol-3-yl)ethyl)-2-((4-fluorobenzyl)amino)-N-(4-methylbenzyl)acetamide hydrochloride salt] | 1.10 |  |  |  |  |  |  |  |  |  |  | 
5 | Brc1cccc(CNCCc2c[nH]c3ccccc23)c1.Cl [Compound 13, N-(3-bromobenzyl)-2-(1H-indol-3-yl)ethan-1-amine hydrochloride salt] | 0.97 |  |  |  |  |  |  |  |  |  |  | 
6 | Cc1ccccc1C(CCNC1CCC(N)CC1)c1cn(CC2CCCCC2)c2ccccc12 (stereo not shown) [Compound 186, N1-(3-(1-(cyclohexylmethyl)-1H-indol-3-yl)-3-(o-tolyl)propyl)cyclohexane-1,4-diamine hydrochloride salt] |  | 8 | 2 | 2 | 4 | 4 | 8 | 3.6 | 8 | 4 | 4 | MIC [3, 12]: 4 µg/mL; MIC [4, 13]: 16 µg/mL; MIC ([5]; ATCC29213, read-out: S. aureus ATCC 29213 MIC, Table XIII): 4 µg/mL; MIC [5, 14]: 4 µg/mL; MIC [8]: 4 µg/mL; MIC (E. faecium ATCC 700221; [15]): 2 µg/mL; MIC [10]: 32 µg/mL
7 | N[C@H]1CC[C@H](NCCc2cn(CC3CCCCC3)c3ccc(-c4cccc(OC(F)(F)F)c4)cc23)CC1 [Compound 274, hydrochloride salt] |  | 8 | 4 | 2 | 2 | 8 | 4 | 6.53 | 8 | 2 | 4 | MIC [3, 18]: 2 µg/mL; MIC [4, 19]: 8 µg/mL; MIC [5, 20]: 4 µg/mL; MIC [5, 21]: 2 µg/mL; MIC [8, 22]: 2 µg/mL; MIC (E. faecium ATCC 700221; [23]): 2 µg/mL; MIC [10, 24]: 16 µg/mL
8 | Cl.c1ccc2c(CCNCc3cncs3)c[nH]c2c1 [Compound 16, 2-(1H-indol-3-yl)-N-(thiazol-5-ylmethyl) ethan-1-amine hydrochloride salt] | 0.88 |  |  |  |  |  |  |  |  |  |  | 
9 | Cl.c1ccc2c(CCNCc3c[nH]cn3)c[nH]c2c1 [Compound 9, N-((1H-imidazol-4-yl)methyl)-2-(1H-indol-3-yl)ethan-1-amine hydrochloride salt] | 0.91 |  |  |  |  |  |  |  |  |  |  | 
10 | Cl.c1cc(CNCCc2c[nH]c3ccccc23)nc(N2CCCCC2)c1 [Compound 17, 2-(1H-indol-3-yl)-N-((6-(piperidin-1-yl)pyridin-2-yl)methyl)ethan-1-amine hydrochloride salt] | 0.94 |  |  |  |  |  |  |  |  |  |  | 
11 | Cc1cccc(C(CCN2CCC(N)CC2)c2cn(CC3CCCCC3)c3ccccc23)c1 (stereo not shown) [Compound 216, 1-(3-(1-(cyclohexylmethyl)-1H-indol-3-yl)-3-(m-tolyl)propyl)piperidin-4-amine hydrochloride salt] |  | 8 | 4 | 2 | 4 | 8 | 4 | 25 | 128 | 4 | 8 | MIC [3, 12]: 4 µg/mL; MIC [4, 13]: 64 µg/mL; MIC [5, 14]: 4 µg/mL; MIC [8]: 4 µg/mL; MIC (E. faecium ATCC 700221; [15]): 2 µg/mL; MIC [10]: 64 µg/mL
12 | Cl.Fc1ccc(CN(CCc2c[nH]c3ccccc23)Cc2ncc[nH]2)cc1 [Compound 10, N-((1H-imidazol-2-yl)methyl)-N-(4-fluorobenzyl)-2-(1H-indol-3-yl)ethan-1-amine hydrochloride salt] | 0.95 |  |  |  |  |  |  |  |  |  |  | 
13 | COc1ccc(CNCCc2c[nH]c3ccccc23)cc1.Cl [Compound 11, 2-(1H-indol-3-yl)-N-(4-methoxybenzyl)ethan-1-amine hydrochloride salt] | 0.72 |  |  |  |  |  |  |  |  |  |  | 
14 | Cl.Clc1ccc(CNCCc2c[nH]c3ccccc23)c(Cl)n1 [Compound 8, N-((2,6-dichloropyridin-3-yl)methyl)-2-(1H-indol-3-yl)ethan-1-amine hydrochloride salt] | 0.96 |  |  |  |  |  |  |  |  |  |  | 
15 | NC1CCC(NC(=O)CC(c2cccc(OC(F)(F)F)c2)c2cn(CC3CCCCC3)c3ccccc23)CC1 [Compound 143, N-((1S,4S)-4-aminocyclohexyl)-3-(1-(cyclohexylmethyl)-1H-indol-3-yl)-3-(3-(trifluoromethoxy)phenyl) propanamide hydrochloride salt] |  | 16 | 64 | 2 | 2 | > 128 | 16 | 20 | > 128 | > 512 | > 128 | MIC [3, 12]: 4 µg/mL; MIC [4, 13]: > 128 µg/mL; MIC [5, 14]: 4 µg/mL; MIC [8]: 16 µg/mL; MIC (E. faecium ATCC 700221; [15]): 4 µg/mL; MIC [10]: > 128 µg/mL
16 | Brc1cccc(CNCCc2c[nH]c3ccccc23)n1.Cl [Compound 12, N-((6-bromopyridin-2-yl)methyl)-2-(1H-indol-3-yl)ethan-1-amine hydrochloride salt] | 0.84 |  |  |  |  |  |  |  |  |  |  | 
17 | Cc1cccc(C(CCNC2CCNCC2)c2cn(CC3CCCCC3)c3ccc(Br)cc23)c1.Cl (stereo not shown) [Compound 163, N-(3-(5-bromo-1-(cyclohexylmethyl)-1H-indol-3-yl)-3-(m-tolyl)propyl)piperidin-4-amine hydrochloride salt] |  | 8 | 4 | 2 | 1 | 4 | 4 | 8.5 | 4 | 2 | 4 | MIC [3, 18]: 2 µg/mL; MIC [4, 19]: 16 µg/mL; MIC [5, 20]: 2 µg/mL; MIC [5, 21]: 4 µg/mL; MIC [8, 22]: 4 µg/mL; MIC (E. faecium ATCC 700221; [23]): 2 µg/mL; MIC [10, 24]: 16 µg/mL
18 | Cc1cccc(C(CC(=O)Nc2ccc(CN)cc2)c2cn(CC3CCCCC3)c3ccccc23)c1.Cl (stereo not shown) [Compound 139, N-(4-(aminomethyl)phenyl)-3-(1-(cyclohexylmethyl)-1H-indol-3-yl)-3-(m-tolyl)propanamide hydrochloride salt] |  | 16 | 32 | 2 | 2 | > 128 | 16 | 46 | > 128 | > 512 | > 128 | MIC [3, 18]: 4 µg/mL; MIC [4, 19]: > 128 µg/mL; MIC [5, 21]: 4 µg/mL; MIC [8, 22]: 8 µg/mL; MIC (E. faecium ATCC 700221; [23]): 4 µg/mL; MIC [10, 24]: > 128 µg/mL
